Biological target: USP30 (Homo sapiens (Human), UniProt Q70CQ3)
Assay: USP30 biochemical FP or FI IC50 assay
Conditions: read-out: IC50 range
Procedure: In Vitro USP30 FP Inhibition Assay
USP30 Biochemical IC50 Assay
(§1) Dilution plates were prepared at 21 times the final concentration (2100 μM for a final concentration of 100 μM) in 50% DMSO in a 96-well polypropylene V-bottom plate (Greiner #651201). A typical 8-point dilution series would be 100, 30, 10, 3, 1, 0.3, 0.1, 0.03 μM final. Reactions were performed in duplicate in black 384 well plates (small volume, Greiner 784076) in a final reaction volume of 21 μl. Either 1 μl of 50% DMSO or diluted compound was added to the plate. USP30 was diluted in reaction buffer (40 mM Tris, pH 7.5, 0.005% Tween 20, 0.5 mg/ml BSA, 5 mM—beta-mercaptoethanol) to the equivalent of 0.05 µl/well and 10 μl of diluted USP30 was added to the compound. Enzyme and compound were incubated for 30 min at room temp. Reactions were initiated by the addition of 50 nM of TAMRA labelled peptide linked to ubiquitin via an iso-peptide bond as fluorescence polarisation substrate. Reactions were read immediately after addition of substrate and following a 2 hr incubation at room temperature. Readings were performed on a Pherastar Plus (BMG Labtech). λ Excitation 540 nm; λ Emission 590 nm.
In Vitro USP30 FI Inhibition Assay
USP30 Biochemical Fluorescence Intensity IC50 Assay
as §1, with “0.001 μl/well” for “0.05 µl/well”, “Ubiquitin-Rhodamine 110 (U-555; Boston Biochem) at a final concentration” for “50 nM”, “100 nM.” for “TAMRA labelled peptide linked to ubiquitin via an iso-peptide bond as fluorescence polarisation substrate.”, “h” for “hr”, “487” for “540”, “535” for “590”

USP30, sequence (Q70CQ3 57-517): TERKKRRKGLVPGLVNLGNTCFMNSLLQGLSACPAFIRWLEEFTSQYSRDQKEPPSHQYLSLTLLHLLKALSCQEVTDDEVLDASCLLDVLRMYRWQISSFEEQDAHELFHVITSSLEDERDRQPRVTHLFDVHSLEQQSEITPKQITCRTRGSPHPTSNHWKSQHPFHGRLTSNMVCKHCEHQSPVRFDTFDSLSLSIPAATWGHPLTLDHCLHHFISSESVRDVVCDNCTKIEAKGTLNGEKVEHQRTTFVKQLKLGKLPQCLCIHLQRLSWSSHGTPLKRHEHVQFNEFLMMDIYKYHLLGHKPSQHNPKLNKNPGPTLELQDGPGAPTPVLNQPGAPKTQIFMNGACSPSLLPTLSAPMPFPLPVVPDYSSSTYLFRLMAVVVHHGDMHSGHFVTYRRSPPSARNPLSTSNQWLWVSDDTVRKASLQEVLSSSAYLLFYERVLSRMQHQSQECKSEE

Substance | IC50 [nM]
(R)-N-(1-cyano pyrrolidin-3-yl)- 3-phenoxy azetidine- 1-carboxamide [Example 133] | 100 to 1000
N-((R)-1-cyano pyrrolidin-3-yl)- ((2S,6R)-2,6- dimethyl morpholino)- 5-fluoroiso nicotinamide [Example 140] | 100 to 1000
N-(1-cyanopyrrolidin-3-yl)-6-(4- phenoxypiperidin-1- yl)nicolinamide [Example 22] | 100 to 1000
rac-(3aR, 6aR)-1-(3-phenyl-1II- pyrazole-5- carbonyl)hexahydropyrrolo[3,4- b]pyrrole-5(1H)-carbonitrile [Example 52] | 100 to 1000
(R)-3-(1H-benzo [d]imidazol-2-yl)- N-(1-cyano pyrrolidin-3- yl)azetidine-1- carboxamide [Example 134] | 100 to 1000

Reference: patent US11390584B2, “1-cyano-pyrrolidine compounds as USP30 inhibitors” (Mission Therapeutics Limited, priority 2015, dated 2022)
